Literature values as cited in patent US9554577B2, “Herbicidal formulation” (priority 2011, dated 2017).

Tests used:
[1] = chlorinated hydrocarbons and aromatic solvents such as methylene chloride, acetone and xylene

CCC(CC)Nc1c([N+](=O)[O-])cc(C)c(C)c1[N+](=O)[O-] [Pendimethalin, n-(1-ethylpropyl)-3,4-dimethyl-2,6-dinitrobenzenamine]
solubility in organic solvents [1]: soluble
stability under acidic and alkaline conditions: stable
